Calls of active or inactive are those of the source.
Experiments:
[1] = target: DNA dC->dU-editing enzyme APOBEC-3A (Homo sapiens, UniProt P31941); assay: APOBEC3A DNA deaminase inhibitors, dose response, biochemical (AID 504722); type: functional
[2] = target: DNA dC->dU-editing enzyme APOBEC-3G (Homo sapiens, UniProt Q9HC16); assay: Dose Response confirmation of small molecule APOBEC3G DNA Deaminase Inhibitors via a fluorescence-based single-stranded DNA deaminase assay. [Related pubchem assays (depositor defined):AID493012, AID493028]; type: functional
Sequence of DNA dC->dU-editing enzyme APOBEC-3G (Q9HC16 whole entry): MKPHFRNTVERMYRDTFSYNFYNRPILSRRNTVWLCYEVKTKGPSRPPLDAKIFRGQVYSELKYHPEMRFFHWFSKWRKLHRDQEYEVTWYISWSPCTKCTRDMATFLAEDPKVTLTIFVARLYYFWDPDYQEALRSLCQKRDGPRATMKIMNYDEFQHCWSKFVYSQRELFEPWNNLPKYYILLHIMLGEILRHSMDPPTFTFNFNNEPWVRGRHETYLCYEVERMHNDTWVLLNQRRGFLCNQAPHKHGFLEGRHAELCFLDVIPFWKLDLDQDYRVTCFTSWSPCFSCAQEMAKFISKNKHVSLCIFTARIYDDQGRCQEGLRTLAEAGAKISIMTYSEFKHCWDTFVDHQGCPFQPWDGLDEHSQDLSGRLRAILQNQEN

[3] = M. tuberculosis H37Rv growth inhibitors, H37Rv strain (AID 1626); type: functional
[4] = target: T1, Replicative DNA helicase DnaB (Mycobacterium tuberculosis, UniProt P9WMR3); assay: DnaB intein splicing inhibitors, dose response, biochemical, cell-free fluorescence (AID 449749); type: functional
T1 sequence (P9WMR3 whole entry): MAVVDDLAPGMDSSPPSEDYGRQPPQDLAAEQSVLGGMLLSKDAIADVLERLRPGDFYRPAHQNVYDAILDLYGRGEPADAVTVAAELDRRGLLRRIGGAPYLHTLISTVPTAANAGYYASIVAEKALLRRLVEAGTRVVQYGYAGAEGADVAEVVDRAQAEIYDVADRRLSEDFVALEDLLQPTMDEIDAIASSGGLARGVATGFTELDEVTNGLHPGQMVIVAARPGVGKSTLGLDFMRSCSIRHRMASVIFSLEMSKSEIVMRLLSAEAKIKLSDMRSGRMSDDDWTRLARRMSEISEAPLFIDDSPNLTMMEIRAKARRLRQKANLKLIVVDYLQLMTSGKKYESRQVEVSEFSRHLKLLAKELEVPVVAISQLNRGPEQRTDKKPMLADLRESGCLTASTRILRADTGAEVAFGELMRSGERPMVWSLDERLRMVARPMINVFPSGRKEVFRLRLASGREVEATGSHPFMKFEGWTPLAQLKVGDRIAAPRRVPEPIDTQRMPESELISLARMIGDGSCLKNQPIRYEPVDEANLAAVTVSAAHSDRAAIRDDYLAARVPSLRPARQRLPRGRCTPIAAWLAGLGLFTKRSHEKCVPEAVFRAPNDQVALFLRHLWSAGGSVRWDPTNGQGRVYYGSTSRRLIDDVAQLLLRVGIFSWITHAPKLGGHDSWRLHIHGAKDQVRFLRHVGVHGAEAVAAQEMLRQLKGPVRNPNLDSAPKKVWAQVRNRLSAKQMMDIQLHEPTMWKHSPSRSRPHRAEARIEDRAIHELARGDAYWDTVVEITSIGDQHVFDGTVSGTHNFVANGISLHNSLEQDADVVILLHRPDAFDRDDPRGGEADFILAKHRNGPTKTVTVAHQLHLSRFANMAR

Protein RecA = target: T2, Protein RecA (Mycobacterium tuberculosis, UniProt P9WHJ3); assay: Fluorescence Cell-Free Homogeneous Dose Retest to Identify Inhibitors of RecA-Intein Splicing Activity. [Related pubchem assays (depositor defined):AID2097, AID2223, AID489010, AID492950]; type: functional
T2 sequence (P9WHJ3 whole entry): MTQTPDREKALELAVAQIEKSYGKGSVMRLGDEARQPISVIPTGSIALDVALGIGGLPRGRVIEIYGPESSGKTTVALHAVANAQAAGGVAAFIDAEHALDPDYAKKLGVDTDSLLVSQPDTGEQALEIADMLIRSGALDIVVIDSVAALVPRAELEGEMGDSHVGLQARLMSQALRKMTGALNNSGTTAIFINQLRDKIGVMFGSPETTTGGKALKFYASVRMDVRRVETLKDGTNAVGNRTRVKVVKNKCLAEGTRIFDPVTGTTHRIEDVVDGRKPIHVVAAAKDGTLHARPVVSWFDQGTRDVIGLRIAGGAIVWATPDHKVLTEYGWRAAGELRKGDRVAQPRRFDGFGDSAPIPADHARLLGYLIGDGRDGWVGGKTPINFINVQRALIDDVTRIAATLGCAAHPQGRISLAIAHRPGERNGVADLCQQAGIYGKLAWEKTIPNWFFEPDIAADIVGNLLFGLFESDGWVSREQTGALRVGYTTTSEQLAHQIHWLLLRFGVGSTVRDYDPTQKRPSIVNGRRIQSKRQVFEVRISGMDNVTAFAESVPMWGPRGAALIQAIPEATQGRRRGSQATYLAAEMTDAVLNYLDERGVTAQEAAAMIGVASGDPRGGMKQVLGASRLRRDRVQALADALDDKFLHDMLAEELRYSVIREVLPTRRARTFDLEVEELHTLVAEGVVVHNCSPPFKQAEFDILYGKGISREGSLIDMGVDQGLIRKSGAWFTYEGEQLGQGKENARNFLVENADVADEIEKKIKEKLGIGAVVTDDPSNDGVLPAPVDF

[5] = cytotoxicity in HPDE-C7 cells, cell-based, fluorescence, HTS (AID 430); type: functional; conditions: Homo sapiens
[6] = cytotoxicity in KRAS-transformed pancreatic duct cells, primary screen, cell-based, fluorescence, HTS (AID 431); type: functional; conditions: Homo sapiens;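 note: cell line used: HPDE-C7K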
Cytochrome P450 2C9 = Cytochrome P450 2C9 (Homo sapiens, UniProt P11712)
Sequence of Cytochrome P450 2C9 (P11712 whole entry): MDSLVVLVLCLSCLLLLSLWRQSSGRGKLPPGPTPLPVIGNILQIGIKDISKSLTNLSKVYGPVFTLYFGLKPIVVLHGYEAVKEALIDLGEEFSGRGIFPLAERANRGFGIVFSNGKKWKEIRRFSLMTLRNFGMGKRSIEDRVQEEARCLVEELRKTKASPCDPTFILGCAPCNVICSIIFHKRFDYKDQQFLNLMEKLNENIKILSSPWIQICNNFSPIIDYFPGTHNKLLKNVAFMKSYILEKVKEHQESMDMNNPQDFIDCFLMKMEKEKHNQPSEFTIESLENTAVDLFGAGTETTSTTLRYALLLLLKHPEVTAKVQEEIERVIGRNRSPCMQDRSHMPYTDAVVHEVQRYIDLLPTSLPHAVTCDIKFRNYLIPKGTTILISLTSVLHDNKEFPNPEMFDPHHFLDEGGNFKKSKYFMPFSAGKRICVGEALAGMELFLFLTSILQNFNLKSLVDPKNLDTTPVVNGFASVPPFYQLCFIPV

[7] = target: T3, E3 ubiquitin-protein ligase XIAP (Homo sapiens, UniProt P98170); assay: Counter Screen using XIAP-Bir3 for Chemical Antagonists of Bir1/2 domains of IAP-family anti-apoptotic proteins. [Related pubchem assays (depositor defined):AID1018, AID1449, AID1514, AID1638, AID1749, AID1750, AID488957, AID488963]
T3 sequence (P98170 whole entry): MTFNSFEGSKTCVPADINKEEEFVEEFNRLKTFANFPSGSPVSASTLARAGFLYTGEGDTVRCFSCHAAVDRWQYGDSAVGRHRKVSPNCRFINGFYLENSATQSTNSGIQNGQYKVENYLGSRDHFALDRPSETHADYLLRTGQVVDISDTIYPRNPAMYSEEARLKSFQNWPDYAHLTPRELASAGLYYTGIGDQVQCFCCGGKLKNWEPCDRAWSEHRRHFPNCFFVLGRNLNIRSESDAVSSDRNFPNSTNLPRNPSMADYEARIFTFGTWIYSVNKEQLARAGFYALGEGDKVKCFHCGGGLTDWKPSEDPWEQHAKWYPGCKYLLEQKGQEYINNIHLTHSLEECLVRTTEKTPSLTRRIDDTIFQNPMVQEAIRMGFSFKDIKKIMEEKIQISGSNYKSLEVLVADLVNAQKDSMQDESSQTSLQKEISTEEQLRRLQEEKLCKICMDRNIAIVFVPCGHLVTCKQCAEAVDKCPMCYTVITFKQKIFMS

[8] = target: T3, E3 ubiquitin-protein ligase XIAP; assay: XIAP antagonists, biochemical, IAP family, fluorescence polarization (AID 1018); type: functional
[9] = THP-1 cell cytotoxicity, dose response, cytotoxicity control for non-replicating M. tuberculosis project (AID 489025); type: functional
[10] = Vero E6 cell cytotoxicity, dose response, cytotoxicity control for non-replicating M. tuberculosis project, secondary assay (AID 492998); type: functional, VeroE6; conditions: Vero C1008
cells = type: functional
[11] = A Cell Based Secondary Assay To Explore Cytotoxicity of Compounds that Sensitize Mycobacterium Tuberculosis to Beta-Lactam Antibiotics.; type: functional
Hexokinase HKDC1 = target: T4, Hexokinase HKDC1 (Homo sapiens, UniProt Q2TB90); assay: HKDC1 hexokinase inhibitors, dose response, biochemical, W721R variant (AID 504729); type: functional
T4 sequence (Q2TB90 whole entry): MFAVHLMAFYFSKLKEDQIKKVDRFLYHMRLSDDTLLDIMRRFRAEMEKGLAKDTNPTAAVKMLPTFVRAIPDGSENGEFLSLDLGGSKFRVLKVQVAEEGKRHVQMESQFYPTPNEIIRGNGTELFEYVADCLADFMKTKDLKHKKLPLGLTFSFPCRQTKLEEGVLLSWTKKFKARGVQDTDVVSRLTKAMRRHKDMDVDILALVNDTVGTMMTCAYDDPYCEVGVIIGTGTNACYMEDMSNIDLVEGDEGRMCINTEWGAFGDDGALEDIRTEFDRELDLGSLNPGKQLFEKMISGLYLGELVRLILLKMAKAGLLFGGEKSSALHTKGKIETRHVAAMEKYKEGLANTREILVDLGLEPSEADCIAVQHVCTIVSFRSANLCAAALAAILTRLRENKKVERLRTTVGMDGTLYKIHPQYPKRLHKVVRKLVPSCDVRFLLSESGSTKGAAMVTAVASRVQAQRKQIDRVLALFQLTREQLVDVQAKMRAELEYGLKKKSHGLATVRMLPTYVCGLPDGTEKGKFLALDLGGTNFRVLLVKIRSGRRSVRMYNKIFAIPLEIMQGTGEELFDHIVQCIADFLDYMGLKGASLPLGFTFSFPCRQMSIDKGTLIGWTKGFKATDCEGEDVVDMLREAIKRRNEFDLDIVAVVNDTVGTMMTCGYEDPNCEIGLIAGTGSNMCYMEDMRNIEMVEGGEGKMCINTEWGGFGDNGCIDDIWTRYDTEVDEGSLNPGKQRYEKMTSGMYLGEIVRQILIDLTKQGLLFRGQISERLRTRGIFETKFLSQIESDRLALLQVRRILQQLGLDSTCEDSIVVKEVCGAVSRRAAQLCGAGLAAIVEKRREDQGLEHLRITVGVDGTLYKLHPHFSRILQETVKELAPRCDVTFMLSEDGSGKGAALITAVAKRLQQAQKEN

SUMO-activating enzyme = SUMO-activating enzyme (Homo sapiens, UniProt Q9UBT2); assay: SUMOylation inhibitor hit validation, confirmation, SUMOylation inhibitor project, biochemical, AlphaScreen (AID 2018); type: functional
Sequence of SUMO-activating enzyme (Q9UBE0 whole entry): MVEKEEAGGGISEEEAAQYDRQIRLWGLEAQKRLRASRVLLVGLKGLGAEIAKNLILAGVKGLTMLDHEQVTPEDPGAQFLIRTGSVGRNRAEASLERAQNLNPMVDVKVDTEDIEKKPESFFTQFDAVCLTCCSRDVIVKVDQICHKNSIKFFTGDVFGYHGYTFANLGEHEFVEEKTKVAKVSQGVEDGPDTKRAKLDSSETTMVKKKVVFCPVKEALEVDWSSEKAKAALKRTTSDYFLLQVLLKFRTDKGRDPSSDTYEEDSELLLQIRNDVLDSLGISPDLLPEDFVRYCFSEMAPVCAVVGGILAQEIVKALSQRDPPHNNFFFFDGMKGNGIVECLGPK
Sequence of SUMO-activating enzyme (Q9UBT2 whole entry): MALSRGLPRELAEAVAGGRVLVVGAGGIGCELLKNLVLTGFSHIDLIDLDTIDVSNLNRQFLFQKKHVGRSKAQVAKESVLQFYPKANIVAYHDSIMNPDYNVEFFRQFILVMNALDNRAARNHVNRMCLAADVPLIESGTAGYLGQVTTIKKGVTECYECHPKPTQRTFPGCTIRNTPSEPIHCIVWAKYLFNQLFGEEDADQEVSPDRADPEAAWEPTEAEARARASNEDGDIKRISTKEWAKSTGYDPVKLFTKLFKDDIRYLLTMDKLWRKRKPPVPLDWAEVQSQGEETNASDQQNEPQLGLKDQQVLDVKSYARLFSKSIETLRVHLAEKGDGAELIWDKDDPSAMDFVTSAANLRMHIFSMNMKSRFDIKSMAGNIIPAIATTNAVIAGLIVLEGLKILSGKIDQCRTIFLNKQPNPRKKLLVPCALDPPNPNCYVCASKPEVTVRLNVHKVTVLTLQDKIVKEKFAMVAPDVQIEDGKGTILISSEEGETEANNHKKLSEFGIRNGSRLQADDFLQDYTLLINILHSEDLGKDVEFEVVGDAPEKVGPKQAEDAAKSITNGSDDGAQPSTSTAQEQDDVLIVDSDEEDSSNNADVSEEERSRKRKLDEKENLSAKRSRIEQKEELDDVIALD

[12] = tested on: Streptococcus sp. 'group A'; assay: growth inhibition of control SK(-) GAS strain, dose response, counter-screen for streptokinase expression inhibitor project, luminescence, kanamycin, BacTiterGlo, confirmation (AID 1900); type: functional, organism-based
Large T antigen = Large T antigen (Simian virus 40, UniProt P03070); type: functional, Betapolyomavirus macacae;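 note: Confirmatory-stage PubChem screen for compounds that inhibit SV40 T antigen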
Sequence of Large T antigen (P03070 whole entry): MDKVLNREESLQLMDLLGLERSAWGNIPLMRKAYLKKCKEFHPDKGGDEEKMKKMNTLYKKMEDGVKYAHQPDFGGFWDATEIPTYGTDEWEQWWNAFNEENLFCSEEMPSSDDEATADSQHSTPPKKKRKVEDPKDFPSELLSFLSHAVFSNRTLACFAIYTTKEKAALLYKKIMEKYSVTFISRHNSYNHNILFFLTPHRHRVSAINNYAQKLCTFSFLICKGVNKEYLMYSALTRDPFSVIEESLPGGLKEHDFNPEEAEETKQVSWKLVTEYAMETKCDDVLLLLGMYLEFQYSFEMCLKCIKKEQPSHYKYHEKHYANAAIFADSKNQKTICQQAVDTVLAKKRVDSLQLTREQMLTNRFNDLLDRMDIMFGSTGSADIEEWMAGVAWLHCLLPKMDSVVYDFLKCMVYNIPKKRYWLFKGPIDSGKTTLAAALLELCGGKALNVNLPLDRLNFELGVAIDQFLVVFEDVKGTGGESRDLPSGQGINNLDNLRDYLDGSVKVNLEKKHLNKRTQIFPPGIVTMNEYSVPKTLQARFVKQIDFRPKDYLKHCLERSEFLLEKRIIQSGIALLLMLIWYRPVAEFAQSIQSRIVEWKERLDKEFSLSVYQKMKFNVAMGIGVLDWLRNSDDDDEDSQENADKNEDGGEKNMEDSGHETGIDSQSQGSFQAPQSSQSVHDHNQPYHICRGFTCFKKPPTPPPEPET

Streptococcus = assay: Group A Streptococcus viability loss, dose response, counter-screen for streptokinase expression inhibitor project, luminescence, BacTiterGlo (AID 1915); type: functional, organism-based;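 note: potency for reduction of bacterial viability or growth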
fMet-Leu-Phe receptor = target: T5, fMet-Leu-Phe receptor (Homo sapiens, UniProt P21462); assay: FPR ligands, dose response (AID 519); type: functional
T5 sequence (P21462 whole entry): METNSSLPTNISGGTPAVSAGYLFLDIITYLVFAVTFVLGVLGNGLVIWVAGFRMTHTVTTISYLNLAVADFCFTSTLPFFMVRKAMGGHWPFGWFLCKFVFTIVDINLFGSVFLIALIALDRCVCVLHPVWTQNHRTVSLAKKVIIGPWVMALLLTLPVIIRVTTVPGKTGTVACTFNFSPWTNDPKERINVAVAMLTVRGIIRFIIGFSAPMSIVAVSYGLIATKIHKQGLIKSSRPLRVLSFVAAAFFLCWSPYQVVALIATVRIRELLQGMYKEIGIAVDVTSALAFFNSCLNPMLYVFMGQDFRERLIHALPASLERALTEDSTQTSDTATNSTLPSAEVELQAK

Sequence of DNA dC->dU-editing enzyme APOBEC-3A (P31941 whole entry): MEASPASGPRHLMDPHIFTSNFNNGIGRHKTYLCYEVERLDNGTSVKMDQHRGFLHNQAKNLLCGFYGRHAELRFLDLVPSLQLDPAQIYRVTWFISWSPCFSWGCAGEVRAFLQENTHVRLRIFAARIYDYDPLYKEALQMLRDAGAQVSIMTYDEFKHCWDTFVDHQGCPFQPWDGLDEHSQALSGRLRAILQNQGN

## COc1ccccc1/C=C/C=N/n1c(S)nnc1-c1ccccn1
[1]
  IC50: > 100 µM (inactive)
[2]
  IC50: 2.67 µM (active)

## CCOc1ccc(N2C(=O)/C(=C\c3ccc(OC)c(O)c3)S(=O)(=O)C2c2cccc([N+](=O)[O-])c2)cc1 (centres undefined)
[3]
  IC50: > 100 µM (active)
[4]
  AC50: 10.2 µM (active)
Protein RecA
  EC50: 6.38 µM (active)

## CS(=O)(=O)N(Cc1cc2ccccc2nc1O)C1CCCCC1
[5]
  EC50: > 20 µM (not active)
[6]
  EC50: > 20 µM (not active)
Cytochrome P450 2C9
  AC50: 39.8 µM (inconclusive)

## COc1ccc(NC(=O)CCCN2C(=O)/C(=C\c3ccco3)SC2=S)cc1
[7]
  IC50: > 25 µM (inactive)
[8]
  IC50: > 100 µM (not active)
[9]
  CC50: > 40 µM (active)
[10]
  CC50: 16 µM (active)
cells
  IC50: 23.4 µM (active)

## Cc1nn(C)c(C)c1NC(=O)CCCSc1nc(-c2ccco2)cc(C(F)(F)F)n1
[11]
  CC50: > 40 µM (active)

## CCCc1nc2oc3c(NCCOCCO)ncnc3c2c2c1COC(C)(C)C2
Hexokinase HKDC1
  IC50: 12.4 µM (active)

## O=C1N/C(=N\c2ccc3ccccc3c2)S/C1=C/c1ccco1
SUMO-activating enzyme
  IC50: 14 µM (active)

## O=C(CCS(=O)(=O)c1ccc(F)cc1)Nc1nnc(-c2cccs2)o1
[11]
  CC50: 24.3 µM (active)

## COCCn1nnnc1C(C(C)C)N(Cc1ccccc1)Cc1cc2cc(OC)ccc2nc1O (centres undefined)
[7]
  IC50: > 100 µM (inactive)
[8]
  IC50: > 100 µM (not active)

## Cc1cc(C)c(N/C=C2/C(=O)N(c3nccs3)C(=O)c3ccccc32)c(C)c1
[11]
  CC50: > 40 µM (active)

## CC(=O)N1CC[n+]2c(-c3ccc([N+](=O)[O-])cc3)csc21
[1]
  IC50: > 100 µM (inactive)
[2]
  IC50: 13.3 µM (active)

## Cn1cccc1/C=N/n1c(S)nnc1-c1ccccc1
[1]
  IC50: > 100 µM (inactive)
[2]
  IC50: 1.78 µM (active)

## CCCCNC(=O)c1sc(=S)n2c1[nH]c(=O)c1ccccc12
[12]
  EC50: 11.2 µM (active)
Large T antigen
  IC50: 79.6 µM (active)
Streptococcus
  EC50: 13.1 µM (active)
Hexokinase HKDC1
  IC50: 18.8 µM (active)
fMet-Leu-Phe receptor
  Ki: 19.6 µM (inactive)

From ChEMBL document CHEMBL1201862, “PubChem BioAssay data set” (2004)
